# Measured values from patent publication US20090149417A1, “Methods and compositions for the treatment of cancer using benzopyrone-type PARP inhibitors” (priority 2007, published 2009).
# “And” between values parts separate entries of the source, which are not always exact repeats. Identical values can stand only once.
# How the values were obtained:
# [1] = system: Colo375FG metastatic pancreatic adenocarcinoma cells; experiment: Live cell number (Coulter counter, methylene blue, PI exclusion); format: cell-based, human
# Method: Colo375FG metastatic pancreatic adenocarcinoma cells are cultured in Dulbecco Modified Eagle Medium with 10% fetal bovine serum. Cells are plated at 10^5 per P100 or at 10^4 per P60 (for assays requiring up to 3 days of culture), in the presence of different concentrations of BiPar compounds and other agents, or DMSO control. Following treatment, the number of attached cells is measured using Coulter counter, and by staining with 1% methylene blue. Methylene blue is dissolved in 50%-50% mixture of Methanol and water. Cells are plated in 24- or 96-well plates and treated with compounds as indicated, then media are aspirated, cells are washed with PBS, fixed in methanol for 5-10 min, washed and the plates are allowed to dry completely. Methylene blue solution is added to wells and plates are incubated for 5 min. Staining solution is removed and plates are washed with dH2O. After plates are completely dry, a small amount of 1N HCl is added to each well to extract the methylene blue. The OD readout at 600 nm and a calibration curve are used to determine cell number.
# IIIg (6-nitro-5-iodo-benzopyrone) is dissolved directly from dry powder to 10 mM stock solution in DMSO for each separate experiment, and then the entire volume of the stock solution is used to prepare working concentrations in cell culture medium to avoid any possibility of precipitation and the corresponding loss of compound. Control experiments are carried out with the matching volume/concentration of the vehicle (DMSO).
# (§1) After the addition of drugs and incubation, cells are trypsinized and aliquots of the samples are taken for counting and PI (Propidium Iodide) exclusion assay. One part of the cells is centrifuged and resuspended in 0.5 ml ice-cold PBS containing 5 μg/ml of PI. The other part of the cells is fixed in ice-cold 70% ethanol and stored in a freezer overnight. For cell cycle analysis, cells are stained with propidium iodide (PI) by standard procedures. Cellular DNA content is determined by flow cytometry using BD LSRII FACS, and the percentages of cells in G1, S or G2/M are determined using ModFit software.
# Colo375FG metastatic pancreatic adenocarcinoma cells are obtained from ATCC and cultured in Dulbecco Modified Eagle Medium with 10% fetal bovine serum. Cells are plated at 10^5 cells per P100 cell culture dish or at 10^4 cells per P60 cell culture dish in the presence of different concentrations compounds or DMSO control. Following treatment, the number of attached cells is measured using Coulter counter, and by staining with 1% methylene blue. Methylene blue is dissolved in 50%-50% mixture of Methanol and water. Cells are plated in 24- or 96-well plates and treated as planned, media are aspirated, cells are washed with PBS, fixed in methanol for 5-10 min, methanol is aspirated and plates are allowed to dry completely. Methylene blue solution is added to wells and plates are incubated for 5 min. Staining solution is removed and plates are washed with dH2O until washes are no longer blue. After plates are completely dry, a small amount of 1N HCl is added to each well to extract the methylene blue. The OD readout at 600 nm and a calibration curve are used to determine cell number.
# Compounds of the invention are dissolved directly from dry powder to 10 mM stock solution in DMSO for each separate experiment. Control experiments are carried out with the matching volume/concentration of the vehicle (DMSO). In these controls, the cells show no changes in their growth or cell cycle distribution.
# as §1, with “ug/ml” for “μg/ml”, “Cellular DNA content is determined by flow cytometry using BD LSRII FACS, and the percentages of cells in G1, S or G2/M are determined using ModFit software.” left out
# [2] = system: Colo375FG metastatic pancreatic adenocarcinoma cells; experiment: Bromodeoxyuridine (BrdU) labeling assay (flow cytometry); format: cell-based, human
# Method: 50 μl of BrdU (Sigma Chemical Co., St. Louis, Mo.) stock solution (1 mM) is added to give 10 μM BrdU final concentration. The cells are incubated for 30 min at 37° C. and fixed in ice-cold 70% ethanol and stored in a cold room (4° C.) overnight. Fixed cells are centrifuged and washed once in 2 ml PBS, then resuspended in 0.7 ml of denaturation solution (0.2 mg/ml pepsin in 2 N HCl) for 15 min at 37° C. in the dark and suspended with 1.04 ml 1M Tris buffer (Trizma base, Sigma Chemical Co.) to terminate the hydrolysis and washed in 2 ml PBS.
# (§2) Cells are resuspended in 100-μl anti-BrdU antibody (DakoCytomation, Carpinteria, Calif.) with 1:100 dilution in TBFP permeable buffer (0.5% Tween-20, 1% bovine serum albumin and 1% fetal bovine serum in PBS) and incubated for 25 min at room temperature in the dark and washed in 2 ml PBS. The primary antibody-labeled cells are resuspended in 100 μl Alexa Fluor F(ab′)2 fragment of goat anti-mouse IgG (H+L) (2 mg/mL) (Molecular Probes, Eugene, Oreg.) with 1:200 dilution in TBFP permeable buffer and incubated for 25 min at room temperature in the dark and washed in 2 ml PBS, then resuspended in 0.5 ml ice-cold PBS containing 1 μg/ml 4′,6-diamidino-2-phenylindole (DAPI) for at least 30 min. All cell samples are analyzed with a BD LSR II (BD Biosciences, San Jose, Calif.).
# as §2, with “50 μl of BrdU (Sigma Chemical Co., St. Louis, Mo.) stock solution (1 mM) is added to give 10 μM BrdU final concentration. The cells are incubated for 30 min at 37 °C and fixed in ice-cold 70% ethanol and stored in a cold room (4 °C) overnight. Fixed cells are centrifuged and washed once in 2 ml PBS, then resuspended in 0.7 ml of denaturation solution (0.2 mg/ml pepsin in 2 N HCl) for 15 min at 37° C. in the dark and suspended with 1.04 ml 1M Tris buffer (Trizma base, Sigma Chemical Co.) and washed in 2 ml PBS. Then cells” for “Cells”
# [3] = Compound IIIc 0 mM, OxaliPt 10 mM
# [4] = combination of IIIg and oxaliplatin
# [5] = combination: IIIg 2.5 μM + OxaliPt 10 μM
# [6] = combination: IIIg 2.5 μM + OxaliPt 20 μM
# [7] = combination: IIIg 12.5 μM + OxaliPt 10 μM
# [8] = combination: IIIg 12.5 μM + OxaliPt 20 μM
# [9] = combination: IIIg 25 μM + OxaliPt 10 μM
# [10] = combination: IIIg 25 μM + OxaliPt 20 μM
compound,measurement,setting,value
"O=C1[O][Pt]2([NH][C@@H]3CCCC[C@H]3[NH]2)[O]C1=O [OxaliPt, oxaliplatin, reference compound]",Live Cell (%),[1]; [3],54%
same,Live Cell (%),"[1]; Compound IIIc 0 mM, OxaliPt 20 mM",29%
same,Live Cell (%),"[1]; IIIg 0 μM, OxaliPt 10 μM",54%
same,Live Cell (%),"[1]; IIIg 0 μM, OxaliPt 20 μM",29%
same,Cells in S-phase of cell cycle (% BrdU+),[2]; [3],81.74%
same,S-phase % BrdU+,"[2]; IIIg 0 μM, OxaliPt 10 μM",81.74%
same,S-phase % BrdU+,"[2]; IIIg 0 μM, OxaliPt 20 μM",63.12%
"O=c1ccc2c(I)c([N+](=O)[O-])ccc2o1 [IIIg, 5-iodo-6-nitro-benzopyrone]",Live Cell (%),"[1]; IIIg 2.5 μM, OxaliPt 0 μM",100% and 118%
same,Percentage of live cells,[1]; [4],significantly reduces the percentage of live cells
same,Live Cell (%),[1]; [5],62%
same,Live Cell (%),[1]; [6],27%
same,Live Cell (%),[1]; [7],22%
same,Live Cell (%),[1]; [8],13%
same,Live Cell (%),[1]; [9],11%
same,Live Cell (%),[1]; [10],7%
same,S-phase % BrdU+,"[2]; IIIg 2.5 μM, OxaliPt 0 μM",94.89%
same,S-phase % BrdU+,"[2]; IIIg 12.5 μM, OxaliPt 0 μM",93.1%
same,S-phase % BrdU+,"[2]; IIIg 25 μM, OxaliPt 0 μM",75.18%
same,Proliferation (percentage of BrdU positive cells),[2]; [4],inhibits the proliferation
same,S-phase % BrdU+,[2]; [5],86.3%
same,S-phase % BrdU+,[2]; [6],65.32%
same,S-phase % BrdU+,[2]; [7],67.5%
same,S-phase % BrdU+,[2]; [8],33%
same,S-phase % BrdU+,[2]; [9],24.69%
same,S-phase % BrdU+,[2]; [10],33.85%
